Measurements reported in ChEMBL document CHEMBL1201861, “Genomics of Drug Sensitity in Cancer screening data, Wellcome Trust Sanger Institute”.

Experiments:
Test in all cases: cells
Details in all cases: Homo sapiens
MPP-89 = format: functional, cell-based;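 further: growth inhibition of human MPP-89 cells, read out with a cell viability assay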
Description: SANGER: Inhibition of human MPP-89 cell growth in a cell viability assay.

BHY = format: functional, cell-based;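 further: cell growth inhibition read out by a viability assay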
Description: SANGER: Inhibition of human BHY cell growth in a cell viability assay.

ES8 = format: functional, cell-based;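 further: growth inhibition of human ES8 cells, read out with a cell viability assay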
Description: SANGER: Inhibition of human ES8 cell growth in a cell viability assay.

DK-MG = format: functional, cell-based;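 further: growth inhibition of DK-MG cells, read out with a cell viability assay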
Description: SANGER: Inhibition of human DK-MG cell growth in a cell viability assay.

NCI-H1581 = format: functional, cell-based;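 further: cell growth inhibition read out by a viability assay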
Description: SANGER: Inhibition of human NCI-H1581 cell growth in a cell viability assay.

HAL-01 = format: functional, cell-based;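 further: growth inhibition of human HAL-01 cells, read out with a cell viability assay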
Description: SANGER: Inhibition of human HAL-01 cell growth in a cell viability assay.

SBC-5 = format: functional, cell-based;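 further: cell viability assay read-out, IC50 is the concentration that inhibits growth of the cells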
Description: SANGER: Inhibition of human SBC-5 cell growth in a cell viability assay.

SW872 = format: functional, cell-based;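 further: growth inhibition of SW872 cells, read out by a viability assay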
Description: SANGER: Inhibition of human SW872 cell growth in a cell viability assay.

Lu-65 = format: functional, cell-based;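 further: growth inhibition of Lu-65 cancer cells, read out by a cell viability assay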
Description: SANGER: Inhibition of human LU-65 cell growth in a cell viability assay.

COLO-320-HSR = format: functional, cell-based;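 further: growth inhibition of COLO-320-HSR cells, determined with a cell viability assay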
Description: SANGER: Inhibition of human COLO-320-HSR cell growth in a cell viability assay.

NB10 = format: functional, cell-based;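 further: growth inhibition of NB10 cells, read out by a cell viability assay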
Description: SANGER: Inhibition of human NB10 cell growth in a cell viability assay.

EOL1 = format: functional, cell-based;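 further: growth inhibition of EoL-1 cells, read out by a cell viability assay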
Description: SANGER: Inhibition of human EoL-1-cell cell growth in a cell viability assay.

SF-268 = format: functional, cell-based;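 further: growth inhibition of SF-268 cells determined with a cell viability assay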
Description: SANGER: Inhibition of human SF268 cell growth in a cell viability assay.

CAS-1 = format: functional, cell-based;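 further: growth inhibition of CAS-1 cells, measured with a cell viability assay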
Description: SANGER: Inhibition of human CAS-1 cell growth in a cell viability assay.

GI-ME-N = format: functional, cell-based;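 further: growth inhibition of human GI-ME-N cells, read out with a cell viability assay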
Description: SANGER: Inhibition of human GI-ME-N cell growth in a cell viability assay.

SJSA-1 = format: functional, cell-based;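 further: growth inhibition of human SJSA-1 cells, read out through a cell viability measurement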
Description: SANGER: Inhibition of human SJSA-1 cell growth in a cell viability assay.

LS-123 = format: functional, cell-based
Description: SANGER: Inhibition of human LS-123 cell growth in a cell viability assay.

LS-1034 = format: functional, cell-based
Description: SANGER: Inhibition of human LS-1034 cell growth in a cell viability assay.

K5 = format: functional, cell-based
Description: SANGER: Inhibition of human K5 cell growth in a cell viability assay.

SHP77 = format: functional, cell-based, SHP-77;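 further: growth inhibition of human SHP-77 cells measured by a cell viability assay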
Description: SANGER: Inhibition of human SHP-77 cell growth in a cell viability assay.

EW-22 = format: functional, cell-based;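 further: growth inhibition of the EW-22 cell line, measured with a cell viability readout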
Description: SANGER: Inhibition of human EW-22 cell growth in a cell viability assay.

NCI-H526 = format: functional, cell-based;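 further: growth inhibition of the human NCI-H526 cell line, measured by a cell viability assay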
Description: SANGER: Inhibition of human NCI-H526 cell growth in a cell viability assay.

RPMI-8866 = format: functional, cell-based
Description: SANGER: Inhibition of human RPMI-8866 cell growth in a cell viability assay.

EW-18 = format: functional, cell-based;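 further: growth inhibition of EW-18 cells, read out by a cell viability assay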
Description: SANGER: Inhibition of human EW-18 cell growth in a cell viability assay.

OVCAR-5 = format: functional, cell-based;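 further: growth inhibition of human OVCAR-5 cells, read out with a cell viability assay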
Description: SANGER: Inhibition of human OVCAR-5 cell growth in a cell viability assay.

AM-38 = format: functional, cell-based;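 further: growth inhibition of AM-38 cells of human origin, read out by a cell viability assay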
Description: SANGER: Inhibition of human AM-38 cell growth in a cell viability assay.

NCI-H69 = format: functional, cell-based;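 further: growth inhibition of the cell line, read out with a cell viability assay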
Description: SANGER: Inhibition of human NCI-H69 cell growth in a cell viability assay.

NCI-H720 = format: functional, cell-based;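 further: growth inhibition of human NCI-H720 cells determined by a cell viability assay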
Description: SANGER: Inhibition of human NCI-H720 cell growth in a cell viability assay.

OVCAR-4 = format: functional, cell-based;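 further: growth inhibition of human OVCAR-4 cells, measured with a cell viability assay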
Description: SANGER: Inhibition of human OVCAR-4 cell growth in a cell viability assay.

IST-SL1 = format: functional, cell-based;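 further: growth inhibition of human IST-SL1 cells, read out with a cell viability assay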
Description: SANGER: Inhibition of human IST-SL1 cell growth in a cell viability assay.

SCC-15 = format: functional, cell-based;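 further: growth inhibition of SCC-15 cells, read out with a cell viability assay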
Description: SANGER: Inhibition of human SCC-15 cell growth in a cell viability assay.

PSN1 = format: functional, cell-based;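 further: suppression of growth of human PSN1 cells, read out by a cell viability assay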
Description: SANGER: Inhibition of human PSN1 cell growth in a cell viability assay.

HCE-T = format: functional, cell-based;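 further: cell viability assay read-out, reporting inhibition of HCE-T cell growth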
Description: SANGER: Inhibition of human HCE-T cell growth in a cell viability assay.

QIMR-WIL = format: functional, cell-based;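 further: growth inhibition of QIMR-WIL cells, read out with a cell viability assay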
Description: SANGER: Inhibition of human QIMR-WIL cell growth in a cell viability assay.

P30-OHK = format: functional, cell-based;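 further: growth inhibition of the P30-OHK cell line, read out with a cell viability assay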
Description: SANGER: Inhibition of human P30-OHK cell growth in a cell viability assay.

SK-MEL-2 = format: functional, cell-based;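 further: growth inhibition of human SK-MEL-2 cells measured with a cell viability assay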
Description: SANGER: Inhibition of human SK-MEL-2 cell growth in a cell viability assay.

LS-411N = format: functional, cell-based
HH = format: functional, cell-based
Description: SANGER: Inhibition of human HH cell growth in a cell viability assay.

MFH-ino = format: functional, cell-based;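 further: growth inhibition of human MFH-ino cells, read out by a cell viability assay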
Description: SANGER: Inhibition of human MFH-ino cell growth in a cell viability assay.

ESS-1 = format: functional, cell-based;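 further: growth inhibition of human ESS-1 cells, read out by a cell viability assay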
Description: SANGER: Inhibition of human ESS-1 cell growth in a cell viability assay.

HCE-4 = format: functional, cell-based;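 further: cell viability assay measuring inhibition of growth in the human HCE-4 cell line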
Description: SANGER: Inhibition of human HCE-4 cell growth in a cell viability assay.

NKM-1 = format: functional, cell-based;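 further: growth inhibition of NKM-1 cells, read out with a cell viability assay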
Description: SANGER: Inhibition of human NKM-1 cell growth in a cell viability assay.

NCI-H747 = format: functional, cell-based;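 further: growth inhibition of human NCI-H747 cells, read out by a cell viability assay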
Description: SANGER: Inhibition of human NCI-H747 cell growth in a cell viability assay.

HCT-116 = format: functional, cell-based
Description: SANGER: Inhibition of human HCT-116 cell growth in a cell viability assay.

LB2518-MEL = format: functional, cell-based;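 further: growth inhibition of human LB2518-MEL cells, measured with a cell viability assay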
Description: SANGER: Inhibition of human LB2518-MEL cell growth in a cell viability assay.

NCI-H209 = format: functional, cell-based;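 further: growth inhibition of human NCI-H209 cells, measured by a cell viability assay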
Description: SANGER: Inhibition of human NCI-H209 cell growth in a cell viability assay.

LAN-6 = format: functional, cell-based;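 further: growth inhibition of LAN-6 cells, determined with a cell viability assay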
Description: SANGER: Inhibition of human LAN-6 cell growth in a cell viability assay.

U2OS = format: functional, cell-based, U-2-OS;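 further: growth inhibition of human U-2-OS cells, determined with a cell viability assay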
Description: SANGER: Inhibition of human U-2-OS cell growth in a cell viability assay.

SJRH30 = format: functional, cell-based;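 further: growth inhibition of human SJRH30 cells, read out with a cell viability assay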
Description: SANGER: Inhibition of human SJRH30 cell growth in a cell viability assay.

HOP-62 = format: functional, cell-based;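 further: cell growth inhibition determined with a viability assay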
Description: SANGER: Inhibition of human HOP-62 cell growth in a cell viability assay.

UACC-257 = format: functional, cell-based
Description: SANGER: Inhibition of human UACC-257 cell growth in a cell viability assay.

DJM-1 = format: functional, cell-based;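 further: growth inhibition of human DJM-1 cells, read out by a cell viability assay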
Description: SANGER: Inhibition of human DJM-1 cell growth in a cell viability assay.

TE-1 = format: functional, cell-based;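 further: growth inhibition of the human TE-1 cell line, read out with a cell viability assay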
Description: SANGER: Inhibition of human TE-1 cell growth in a cell viability assay.

NB6 = format: functional, cell-based;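 further: growth inhibition of NB6 cells, read out by a cell viability assay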
Description: SANGER: Inhibition of human NB6 cell growth in a cell viability assay.

NMC-G1 = format: functional, cell-based;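 further: growth inhibition of the NMC-G1 cell line, measured with a cell viability read-out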
Description: SANGER: Inhibition of human NMC-G1 cell growth in a cell viability assay.

NOS-1 = format: functional, cell-based
Description: SANGER: Inhibition of human NOS-1 cell growth in a cell viability assay.

ACN = format: functional, cell-based
Description: SANGER: Inhibition of human ACN cell growth in a cell viability assay.

GCIY = format: functional, cell-based
Description: SANGER: Inhibition of human GCIY cell growth in a cell viability assay.

COLO-829 = format: functional, cell-based
Description: SANGER: Inhibition of human COLO-829 cell growth in a cell viability assay.

JVM-2 = format: functional, cell-based
Description: SANGER: Inhibition of human JVM-2 cell growth in a cell viability assay.

HCC1187 = format: functional, cell-based
Description: SANGER: Inhibition of human HCC1187 cell growth in a cell viability assay.

CHP-212 = format: functional, cell-based
Description: SANGER: Inhibition of human CHP-212 cell growth in a cell viability assay.

MDA-MB-175-VII = format: functional, cell-based
SNU-C2B = format: functional, cell-based
Description: SANGER: Inhibition of human SNU-C2B cell growth in a cell viability assay.

A4-Fuk = format: functional, cell-based
Description: SANGER: Inhibition of human A4-Fuk cell growth in a cell viability assay.

RS4-11 = format: functional, cell-based
Description: SANGER: Inhibition of human RS4-11 cell growth in a cell viability assay.

With `Cn1cc(/C=C2\C(=O)Nc3cccnc32)c2ccccc21` the IC50 (MPP-89) was over 2000 nM, the IC50 (BHY) was over 2000 nM and the IC50 (ES8) was over 2000 nM. The IC50 (DK-MG) was over 2000 nM, the IC50 (NCI-H1581) was over 2000 nM and the IC50 (HAL-01) was over 2000 nM. The IC50 (SBC-5) was over 2000 nM, the IC50 (SW872) was over 2000 nM and the IC50 (Lu-65) was over 2000 nM. It also gave an IC50 (COLO-320-HSR) of over 2000 nM, an IC50 (NB10) of over 2000 nM and an IC50 (EOL1) of over 2000 nM. For the same molecule, the IC50 (SF-268) was over 2000 nM, the IC50 (CAS-1) was over 2000 nM and the IC50 (GI-ME-N) was over 2000 nM. For the same molecule, the IC50 (SJSA-1) was over 2000 nM, the IC50 (LS-123) was over 2000 nM and the IC50 (LS-1034) was over 2000 nM. It also gave an IC50 (K5) of over 2000 nM, an IC50 (SHP77) of over 2000 nM and an IC50 (EW-22) of over 2000 nM. It also gave an IC50 (NCI-H526) of over 2000 nM, an IC50 (RPMI-8866) of over 2000 nM and an IC50 (EW-18) of over 2000 nM. The IC50 (OVCAR-5) was over 2000 nM, the IC50 (AM-38) was over 2000 nM and the IC50 (NCI-H69) was over 2000 nM. For the same molecule, the IC50 (NCI-H720) was over 2000 nM, the IC50 (OVCAR-4) was over 2000 nM and the IC50 (IST-SL1) was over 2000 nM. It also gave an IC50 (SCC-15) of over 2000 nM, an IC50 (PSN1) of over 2000 nM and an IC50 (HCE-T) of over 2000 nM. For the same molecule, the IC50 (QIMR-WIL) was over 2000 nM, the IC50 (P30-OHK) was over 2000 nM and the IC50 (SK-MEL-2) was over 2000 nM. It also gave an IC50 (LS-411N) of over 2000 nM, an IC50 (HH) of over 2000 nM and an IC50 (MFH-ino) of over 2000 nM. It also gave an IC50 (ESS-1) of over 2000 nM, an IC50 (HCE-4) of over 2000 nM and an IC50 (NKM-1) of over 2000 nM. The IC50 (NCI-H747) was over 2000 nM, the IC50 (HCT-116) was over 2000 nM and the IC50 (LB2518-MEL) was over 2000 nM. For the same molecule, the IC50 (NCI-H209) was over 2000 nM, the IC50 (LAN-6) was over 2000 nM and the IC50 (U2OS) was over 2000 nM. For the same molecule, the IC50 (SJRH30) was over 2000 nM, the IC50 (HOP-62) was 322 nM and the IC50 (UACC-257) was 1530 nM. It also gave an IC50 (DJM-1) of over 2000 nM, an IC50 (TE-1) of over 2000 nM and an IC50 (NB6) of over 2000 nM. The IC50 (NMC-G1) was over 2000 nM, the IC50 (NOS-1) was over 2000 nM and the IC50 (ACN) was 865 nM. It also gave an IC50 (GCIY) of over 2000 nM, an IC50 (COLO-829) of over 2000 nM and an IC50 (JVM-2) of over 2000 nM. For the same molecule, the IC50 (HCC1187) was over 2000 nM, the IC50 (CHP-212) was over 2000 nM and the IC50 (MDA-MB-175-VII) was over 2000 nM. The IC50 (SNU-C2B) was over 2000 nM, the IC50 (A4-Fuk) was over 2000 nM and the IC50 (RS4-11) was over 2000 nM.
`Cn1c(=O)n(-c2ccc(C(C)(C)C#N)cc2)c2c3cc(-c4cnc5ccccc5c4)ccc3ncc21` [DACTOLISIB] showed an IC50 (MPP-89) of 25.3 nM, an IC50 (BHY) of 42.7 nM and an IC50 (ES8) of 10.9 nM. The IC50 (DK-MG) was 180 nM, the IC50 (NCI-H1581) was 64 nM and the IC50 (HAL-01) was 55.8 nM. For the same molecule, the IC50 (SBC-5) was 83.5 nM, the IC50 (SW872) was 64.6 nM and the IC50 (Lu-65) was 1620 nM. For the same molecule, the IC50 (COLO-320-HSR) was 403 nM, the IC50 (NB10) was 240 nM and the IC50 (EOL1) was 13.9 nM. For the same molecule, the IC50 (SF-268) was 102 nM, the IC50 (CAS-1) was 207 nM and the IC50 (GI-ME-N) was 29.9 nM. The IC50 (SJSA-1) was 38.5 nM, the IC50 (LS-123) was 92.2 nM and the IC50 (LS-1034) was 491 nM. It also gave an IC50 (SHP77) of over 2000 nM, an IC50 (EW-22) of 46.2 nM and an IC50 (NCI-H526) of 824 nM. The IC50 (RPMI-8866) was 72.8 nM, the IC50 (EW-18) was 31.9 nM and the IC50 (OVCAR-5) was 35.5 nM. The IC50 (AM-38) was 69.3 nM, the IC50 (NCI-H69) was 427 nM and the IC50 (NCI-H720) was 3.57 nM. It also gave an IC50 (OVCAR-4) of 73.4 nM, an IC50 (IST-SL1) of 1440 nM and an IC50 (SCC-15) of 174 nM. It also gave an IC50 (PSN1) of 44.4 nM, an IC50 (HCE-T) of 83.7 nM and an IC50 (QIMR-WIL) of 30.6 nM. For the same molecule, the IC50 (P30-OHK) was 83.5 nM, the IC50 (SK-MEL-2) was 76.7 nM and the IC50 (LS-411N) was 187 nM. It also gave an IC50 (HH) of 15.7 nM, an IC50 (ESS-1) of 135 nM and an IC50 (HCE-4) of 262 nM. It also gave an IC50 (NKM-1) of 54.8 nM, an IC50 (NCI-H747) of 119 nM and an IC50 (HCT-116) of 131 nM. The IC50 (LB2518-MEL) was 157 nM, the IC50 (NCI-H209) was 17.3 nM and the IC50 (LAN-6) was over 2000 nM. It also gave an IC50 (U2OS) of 29.5 nM, an IC50 (SJRH30) of 144 nM and an IC50 (UACC-257) of 214 nM. The IC50 (DJM-1) was 340 nM, the IC50 (TE-1) was 223 nM and the IC50 (NB6) was 397 nM. The IC50 (NMC-G1) was 121 nM, the IC50 (NOS-1) was 30.1 nM and the IC50 (ACN) was 81.8 nM. For the same molecule, the IC50 (GCIY) was 50.7 nM, the IC50 (COLO-829) was 296 nM and the IC50 (JVM-2) was over 2000 nM. For the same molecule, the IC50 (HCC1187) was 576 nM, the IC50 (CHP-212) was 74.9 nM and the IC50 (MDA-MB-175-VII) was 39.5 nM. The IC50 (SNU-C2B) was 181 nM, the IC50 (A4-Fuk) was 46.5 nM and the IC50 (RS4-11) was 26.9 nM.
